Measured values as given in publication PMC5824344 (ACS Chemical Biology, 2017).
“Also recorded” adds a separate entry of the source.

What was measured:
[1] = Pharmacokinetics and biodistribution study in mice (IV and PO); type: in vivo, BALB/c mice
Protocol: Supplemental Figure 4: Mouse biodistribution of orally-administered 4. Mice were treated with a single dose of 4 by oral gavage (PO, 10 mg/kg). The mice were sacriﬁced at 30 min, 4 h, and 24 h after 4 administration, and the indicated tissues homogenized and analyzed for 4 by HPLC. While serum levels are much lower than […]
and kidney at 0.5 hours. At 4 and 24 h, as in the IV cohort, 4 remains at a higher concentration in the liver than in other tissues. Each data point represents the mean of 3 animals with error bars representing standard deviation (GraphPad Prism).
(also on this page, place not known: Serum Brain Liver Kidney Heart Spleen Lung 0 500 1000 1500 2000 Tissue h h (ng per g tissue) h 0.5 24 4)
(1 picture or pasted object on this page, not shown here)
The adherent monolayers were washed once with Hank’s buﬀered salt solution (Gibco), then inoculated with 100 µL of analyte and 100 µL of the supplemented MEM used to prepare the dilutions. The plates were rocked at 20 ◦C for 90 min, after which the inoculum was removed and nutrient-supplemented primary overlay (1 mL) was added to each well. The overlay was allowed to solidify at 20 ◦C, before returning the cells to the incubator. After 5 d, nutrient-supplemented, neutral red-containing secondary overlay (1 mL) was added to each well and allowed to solidify at 20 ◦C, then the cells were returned to the incubator.
After 1 d, plaques were observed and counted from the underside of the plate by eye.
5.10 Pharmacokinetics and Biodistribution Study
The study was carried out by Sai Life Science, Ltd. All procedures were in accordance with the guidelines provided by the Committee for the Purpose of Control and Supervisions of Experiments on Animals as published in The Gazette of India, December 15, 1998. Prior approval of the Institutional Animal Ethics Committee was obtained before initiation of the […]
18 healthy male BALB/c mice (8 – 12 weeks old) weighing between 20 and 35 g were procured from ACTREC, Mumbai, India. Illumination was controlled to give a cycle of 12 h light and 12 h dark. Temperature and humidity were recorded by an auto-controlled data logging system and maintained at 22± 3◦C and 55± 15% humidity, respectively. Animals were provided laboratory rodent diet (Vetcare India Pvt. Ltd.) and fresh reverse-osmosis, UV-treated water ad libitum. The mice were randomly divided into two groups. One group was treated with 4 intravenously (IV) at a dose of 2 mg/kg, while the other group was treated with an oral (per os, PO) dose of 10 mg/kg. The dosing volume was 5 mL/kg for IV treatment and 10 mL/kg for PO treatment. Blood samples were collected from three mice from each group under light isoﬂurane anaesthesia before dosing and at 0.25, 0.5, 1, 2, 4, 8 and 24 h after dosing. An additional blood sample was taken for the IV group at 0.08 h after dosing. After collection, potassium tetraethylenediamine was added to the sample as an anticoagulant. Plasma was immediately harvested by centrifugation and then stored at –70 ◦C until analysis. At 0.5, 4, and 24 h after dosing, 3 mice from each group

[2] = tested on: DENV (serotype 2, strain 16681) in Huh7.5 cells; test: DENV Huh7.5 antiviral assay (infectious titer by plaque assay); type: cell-based, dengue virus; settings: MOI 0.1, 48 h, titration of 4 or 50 µm of 3
Protocol: Supplemental Figure 3: Antiviral activity of 4 in human hepatoma Huh7.5 cell line.
(A) Huh7.5 cells were infected with DENV (serotype 2, strain 16681, multiplicity of infection = 0.1) and treated with a titration of ToP-DNJ 4 or 50 µm of tocopherol 3 for 48 h. Infectious virus titer was measured by plaque assay on LLC-MK2 cells. Counts were normalized to 100% for untreated samples.
DENV eﬀect at the concentrations tested. (B) Huh7.5 cells were infected with HCV (JFH-1, multiplicity of infection = 2) and treated with a titration of ToP-DNJ 4 or 50 µm tocopherol 3 for 96 h. Infectious virus titer was measured by TCID50 assay on […]
tested. In both panels, each data point represent the mean of triplicates, with error bars showing standard error of the mean (GraphPad Prism). […]
each well was scored as either positive (≥ 5 stained cells) or negative. TCID50 values were calculated according to the method of Reed and Muench.8 […]
The infectious DENV titres in supernatants collected were evaluated by plaque assay as described previously.9 Brieﬂy, LLC-MK2 cells were seeded in conﬂuent monolayers in a 12-well plate. Four 10-fold dilutions of each supernatant to be analyzed were prepared in minimum essential media (MEM, Gibco), supplemented with 100 µg mL−1 streptomycin, 100 U mL−1 penicillin and 10% (v/v) FCS. […]
After 1 d, plaques were observed and counted from the underside of the plate by eye. […]

[3] = tested on: DENV2 strain 16681 in primary human MDMΦ; design: method as in PMID 23070155; settings: MDMΦ cells, same system; read-out: IC50 for DENV inhibition; cited from earlier work
[4] = cited from earlier work
[5] = BALB/c mice, oral (PO, 10 mg/kg)
[6] = mice, single dose by oral gavage (PO, 10 mg/kg)

SMILES: Cc1c(C)c2c(c(C)c1OCCCCCN1CC(O)C(O)C(O)C1CO)CCC(C)(CCCC(C)CCCC(C)CCCC(C)C)O2 (stereo not drawn) [Compound 4, 5′-tocopheroxypentyl-DNJ]
- change of amount present in the liver between the 4 and 24 h time points ([1]; BALB/c mice): did not decrease
- oral bioavailability ([1]; BALB/c mice): poor oral bioavailability
- maximum blood plasma concentration [1, 5]: 46 nM
- time of maximum blood plasma concentration [1, 5]: 8 h
- tissue in which compound was detected in the highest amounts ([1]; BALB/c mice, oral and intravenous administration): highest amounts in the liver
- half-life ([1]; male, mouse, plasma, BALB/c mice (Figure 3B), read-out: plasma terminal half-life (converted)): 8.79 h
- concentration in the liver relative to other tissues at 4 and 24 h [1, 6]: higher
- tissue levels at 0.5 hours [1, 6]: high levels are achieved in the liver
- anti-DENV effect (infectious virus titer) [2]: neither an anti-DENV nor anti-HCV effect was observed; also recorded: Neither 4 nor 3 showed an anti-

SMILES: CCCCN1CC(O)C(O)C(O)C1CO [Compound 2, N-butyl-D-1-deoxynojirimycin, reference compound]
- IC50 [3]: 6 µM
- plasma half-life [4]: 5 h
- tissue in which compound is found in the highest amounts ([4]; renally excreted): highest amounts in the kidneys and bladder
